# Assay results from patent EP0553186B1, “METHOD FOR PRODUCING T H?-I[…] T LYMPHOCYTES” (IMMUNEX CORPORATION, priority 1990, dated 1992).
# Test system: CD8^+ T cell clone T81
# Assay: Outgrowth of T81 CTL under G418 drug selection
# Type: cell-based, mouse
# Conditions: parental T81 cells, doses used for selection
# Procedure: • A. Selection of CD8^+T cell clone T81 transduced with retroviral vector L.IL-1RSN encoding murine IL-1R. The retroviral vector L.IL-1RSN encoding the murine IL-1 receptor was introduced into the tumor specific CD3^+, CD8^+ T cell clone T81 as follows. T81 is specific for an antigen expressed on the K1735 mouse melanoma cell line. T81 was propagated by stimulation every 8-10 days with tumor antigen and irradiated syngeneic splenocytes as feeder cells. Recombinant IL-2 (50 U/ml) was added to the cultures 48 hours following stimulation. […] The cells were analyzed for M5 binding on a Beckton-Dickinson FACscan analyzer. […] The IL-1 receptors on the T81 cells infected with the L.IL-1RSN vector were analyzed for ^125I-IL-1α binding as previously described (Dower et al., Nature (Lond) 324 :266,1986). […] Nonspecific binding of ^125I-IL-1 was measured by incubation in the presence of an excess of unlabelled IL-1. At the end of the incubation, bound and free ^125I-IL-1 were separated by centrifugation over a phthalate oil mixture and the amount of radiolabel in each fraction measured. The data were corrected for non-specific binding and then analyzed by nonlinear least square fitting to estimate the number of IL-1R/cell. […]
smiles,measurement,value
CN[C@@H]1[C@@H](O)[C@@H](O[C@@H]2[C@@H](O)[C@H](O[C@H]3O[C@H]([C@@H](C)O)[C@@H](O)[C@H](O)[C@H]3N)[C@@H](N)C[C@H]2N)OC[C@]1(C)O [G418],toxicity of G418 to cells,toxic to the parental cells
